Consider 3 molecules from patent publication EP4755886A1 (Chengdu Chipscreen Pharmaceutical Ltd., priority 2023, dated 2025).

Where two headings read alike, the source gives them in different places. Some results are limits rather than exact numbers.

For one data set, the system named is wild-type HCT-116 cells. The data set is described as follows: Cell proliferation (MTS), wild-type HCT-116. It is filed as cell-based. Particulars: Homo sapiens, 240 h; wild-type HCT-116, 10 days with compound, MTS reading; read-out: IC50 HCT116 WT. The method in brief:
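Wild-type HCT-116 cells were seeded at 100 cells/well in McCoy's 5A/10% FBS. From day 1 they were treated with compound in 3-fold dilutions (initial 20 µM, 8 points) for 10 days at 37° C. Proliferation was read by MTS on day 11, and IC50 was obtained from a four-parameter logistic fit.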

A further data set deals with MTAP^-/- HCT-116 cells. The data set is described as follows: Cell proliferation (MTS), MTAP-/- HCT-116. It is filed as cell-based, human. The following applies: for Selectivity: HCT116 WT IC50 relative to HCT116 MTAP-/- IC50; for IC50: Homo sapiens, 240 h, MTAP-/- HCT-116, 10 days with compound, MTS reading, read-out: IC50 HCT116 MTAP-/-. The method, boiled down: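 MTAP-/- (CRISPR/Cas9 biallelic knockout) or wild-type HCT-116 cells seeded at 100 cells/well, treated next day with 8-point 3-fold dilutions (top 20 µM) for 10 days at 37 °C, 5% CO2. Viability read by MTS; IC50 from four-parameter logistic fit of inhibition rate vs log concentration.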

Data set [1] can be described thus: Human liver microsome stability. It counts as in vitro ADME. Particulars: pH 7.4; human liver microsomes 0.5 mg/mL, compound 1 µM, NADPH 1 mM, 37 °C. The protocol: (§1) Experimental materials: human liver microsomes (purchased from BIOIVT);
(§2) PBS: 0.1 M KH2PO4 and K2HPO4 buffers, pH 7.4.
MgCl2: a certain amount of MgCl2 was weighed out and prepared into a 16 mM MgCl2 solution with PBS.
NADPH (Chinese name: reduced nicotinamide adenine dinucleotide phosphate, purchased from Sigma, Cat. No.: 481973-500 mg): a certain amount of NADPH was weighed out and a 4 mM solution of NADPH was prepared with a 16 mM MgCl2 solution, and the final incubation concentration was 1 mM.
Compounds: 4 µM solutions of the test compounds and positive compounds were prepared with PBS, and the final incubation concentration was 1 µM.
Liver microsomes (purchased from BIOIVT, Cat. No.: X008070): the liver microsomes were diluted to […] with PBS, and the final incubation concentration was 0.5 mg/mL.
The prepared test compound or positive compound was added to a test tube, and then the prepared NADPH was added. The mixture was mixed well. The mixture was pre-incubated in a thermostat incubator at 220 rpm at 37 °C for 5 min, and the prepared liver microsomes were added to start the reaction. All steps were performed in replicate wells. At 0 min, 15 min, 30 min, 45 min, and 60 min, a certain volume of glacial acetonitrile solution containing an internal standard was added to the corresponding tube to precipitate the protein. The mixture was vortexed for 5 min with shaking, and then centrifuged at 4000 rpm for 10 min. […] The samples were analyzed by LC-MS/MS.
The concentrations (peak area ratios) of the example compounds were determined by LC-MS/MS. Rate constants were obtained by plotting "Ln (residual amount of compound %)" versus "incubation time" in Excel, thereby calculating the half-lives and intrinsic clearances of the drugs and providing a basis for the prediction of the in-vivo clearance.
[formula] CLH = CLint × fu × Qh /(CLint×fu+Qh) [formula]
Stability in human liver microsomes

Another data set addresses T1, CYP450 enzyme 3A4 (Homo sapiens, UniProt P08684).
T1 construct: Liver microsomes (purchased from BIOIVT, Cat. No.: X008070); tissue BIOIVT X008070; host or cells: human liver microsomes
Kind of data set: CYP inhibition test in human liver microsomes. It counts as in vitro ADME. The following applies: human liver microsomes 0.1 mg/mL. On the procedure: as §1, §2
MgCl2: a certain amount of MgCl2 was weighed out and prepared into a 20 mM MgCl2 solution with PBS.
NADPH (Chinese name: reduced nicotinamide adenine dinucleotide phosphate, purchased from Sigma, Cat. No.: 481973-500 mg): a certain amount of NADPH was weighed out and a 5 mM solution of NADPH was prepared with a 20 mM MgCl2 solution, and the final incubation concentration was 1 mM.
Compounds: 3 mM, 1 mM, 0.3 mM, 0.1 mM, 0.03 mM, 0.01 mM, and 0 mM solutions of the test compounds were prepared with a DMSO-methanol (v:v = 1:9) solution, and the final incubation concentrations were 30 µM, 10 µM, 3 µM, 1 µM, 0.3 µM, 0.1 µM, and 0 µM. 30 µM, 10 µM, 3 µM, 1 µM, 0.3 µM, and 0 µM solutions of the positive compound (ketoconazole) were prepared with a DMSO-methanol (v:v = 1:9) solution, and the final incubation concentrations were 0.3 µM, 0.1 µM, 0.03 µM, 0.01 µM, 0.003 µM, and 0 µM.
Substrate working solutions: 200 µM and 15 µM solutions of substrate working solutions (testosterone and midazolam) were prepared with PBS, separately, and the final incubation concentrations were 40 µM and 3 µM.
Liver microsomes (purchased from BIOIVT, Cat. No.: X008070): the liver microsomes were diluted to […] with PBS, and the final incubation concentration was 0.1 mg/mL.
The prepared test compounds or positive compounds were added to a 96-well plate, and then the prepared human liver microsome working solution and substrate working solution were added. The mixture was mixed well. The mixture was pre-incubated in a thermostat incubator at 37 °C for 5 min, and then the prepared NADPH was added to start the reaction. The mixture was incubated for 5 min or 10 min. After the incubation was completed, a pre-cooled acetonitrile solution containing an internal standard was added to terminate the reaction. After protein precipitation, the mixture was vortexed for 5 min with shaking and then centrifuged at 4000 rpm for 10 min. The supernatant was collected and added to the 96-well plate. The content (peak concentration ratio) of the metabolites of the substrate was determined by an LC-MS/MS method. The residual activity and the half maximal inhibitory concentration (IC50) of the enzyme were calculated based on the detected content.
Percentage of remaining enzyme activity: The activity of each subtype of CYP450 enzyme was expressed as the amount of metabolite produced, and the percentage of remaining enzyme activity was calculated as follows: [formula]
The concentrations of the test substances and the corresponding residual activity percentages were fitted using a nonlinear model of Excel software, and the concentration of the test substances at which 50% inhibition of metabolite production was achieved was the IC50 value.

A further data set can be described thus: PK experiment in mice. Particulars: female, BALB/c, mouse, plasma, po, 10 mg/kg.
The next data set can be described thus: in vivo. Particulars: mouse, po, 10 mg/kg.

T1 sequence (P08684 whole entry): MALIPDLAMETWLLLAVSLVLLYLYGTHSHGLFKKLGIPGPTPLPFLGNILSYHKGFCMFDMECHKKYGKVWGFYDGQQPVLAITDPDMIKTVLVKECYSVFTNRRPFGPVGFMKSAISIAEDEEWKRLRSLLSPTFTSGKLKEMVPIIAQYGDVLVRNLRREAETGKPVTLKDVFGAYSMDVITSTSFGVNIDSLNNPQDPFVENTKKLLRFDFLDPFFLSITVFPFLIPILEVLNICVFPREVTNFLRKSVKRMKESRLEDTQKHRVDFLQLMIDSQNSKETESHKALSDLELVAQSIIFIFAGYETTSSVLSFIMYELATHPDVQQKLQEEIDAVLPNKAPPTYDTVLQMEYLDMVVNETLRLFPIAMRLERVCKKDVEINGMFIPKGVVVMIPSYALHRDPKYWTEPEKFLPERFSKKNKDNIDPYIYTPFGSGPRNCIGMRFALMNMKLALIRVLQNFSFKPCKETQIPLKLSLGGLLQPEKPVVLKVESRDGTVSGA
Procedure for PK experiment in mice: (§3) Experimental materials: the experimental animals were healthy adult female BALB/c mice (provided by Sichuan Vital River Laboratory Animal Technology Co., Ltd.).
(§4) Administration mode and sample collection in mice: BALB/c female mice received oral intragastrical administration (10 mg/kg, vehicle: 0.5% methylcellulose/0.2% Tween 80), and 60 µL of whole blood from the venous plexus of the fundus of the mice at different time points was collected at 0.25 h, 0.5 h, 1 h, 2 h, 4 h, 6 h, 8 h, and 24 h after administration and centrifuged at 4000 rpm for 6 min to collect plasma.
(§5) 10 µL of mouse plasma sample was added to 190 µL of acetonitrile solution containing an internal standard to precipitate protein. The mixture was vortexed for 10 min and centrifuged at 4000 rpm for 10 min. The supernatant was collected and added to a 96-well plate. The samples were analyzed by LC-MS/MS. The drug concentrations in the plasma of mice at different time points after intragastric administration of the example compounds were measured by an LC-MS/MS method, and the related pharmacokinetic parameters were calculated, such that the pharmacokinetic behavior of the compounds in the mice was studied, and the pharmacokinetic characteristics were evaluated.
Procedure for in vivo: as §3, §4, §5

As for `CN(C(=O)c1cc2c3c(c(N)nc2cc1Cl)COC3)[C@@H]1COc2cc(C#Cc3cnn(C)c3)ccc21` [Compound 40A, (S)-4-amino-7-chloro-N-methyl-N-(6-((1-methyl-1H-pyrazol-4-yl)ethynyl)-2,3-dihydrobenzofuran-3-yl)-1,3-dihydrofuro[3,4-c]quinoline-8-carboxamide], the IC50 in the data set on wild-type HCT-116 cells was 483 nM; in the data set with MTAP^-/- HCT-116 cells it was 4.6 nM; at CYP450 enzyme 3A4 (substrate midazolam 3 µM, read-out: IC50 3A4-Midazolam), greater than 30 µM; on CYP450 enzyme 3A4 (substrate testosterone 40 µM, read-out: IC50 3A4-Testosterone), greater than 30 µM. Besides, the Selectivity with MTAP^-/- HCT-116 cells is 105. The molecule also displayed a half-life at 1 µM in data set [1] of 62.9 min. In addition, the AUC(0-t) in the data set “PK experiment in mice” was 10100 ± 3500 ng·h/mL. Moreover, in “PK experiment in mice”, the highest concentration (Cmax) stood at 793 ± 28 ng/mL.
For `[2H]C([2H])([2H])n1cc(C#Cc2ccc3c(c2)OC[C@H]3N(C)C(=O)c2cc3c(cc2F)nc(N)c2cnn(C)c23)cn1` [Compound 82A, (S)-4-amino-7-fluoro-N,1-dimethyl-N-(6-((1-(methyl-D3)-1H-pyrazol-4-yl)ethynyl)-2,3-dihydrobenzofuran-3-yl)-1H-pyrazolo[4,3-c]quinoline-8-carboxamide], the IC50 in the data set with wild-type HCT-116 cells came to 196 nM. Besides, in the data set with MTAP^-/- HCT-116 cells, the Selectivity came to 75 and the IC50 came out at 2.6 nM. In the data set “in vivo”, this molecule had an AUC(0-t) of 14100 ± 4740 ng·h/mL and a Cmax of 1430 ± 195 ng/mL.
The corresponding values for `[2H]C([2H])([2H])N(C(=O)c1cc2c3c(c(N)nc2cc1Cl)COC3)[C@@H]1COc2cc(C#Cc3cnn(C4CC4)c3)ccc21` [Compound 86A, (S)-4-amino-7-chloro-N-(6-((1-cyclopropyl-1H-pyrazol-4-yl)ethynyl)-2,3-dihydrobenzofuran-3-yl)-N-(methyl-D3)-1,3-dihydrofuro[3,4-c]quinoline-8-carboxamide] are 1080 nM, 124, 8.7 nM, 15300 ± 2940 ng·h/mL and 1480 ± 187 ng/mL.
